Results reported in patent publication US20120034613A1, “Apparatus and Method for Testing Relationships Between Gene Expression and Physical Appearance of Skin” (NSE Products, Inc., priority 2010, published 2012).

System: EpidermFT™ Skin Model (EFT-400) full thickness skin cultures
Test: Affymetrix GeneChip HG U133 Plus 2.0 microarray global gene expression, agent-exposed vs untreated skin cultures
Format: cell-based, human
Settings: Salicin 0.5% vs Untreated Control, 24 hr treatment

OCc1ccccc1O[C@@H]1O[C@H](CO)[C@@H](O)[C@H](O)[C@H]1O [Salicin, 2-(Hydroxymethyl)phenyl β-D-glucospyranoside]
up: Direction ABHD2 (221815_at) | Direction ABHD2 (225337_at) | Direction ADAMTS5 (235368_at) | Direction ADAMTS6 (1570351_at) | Direction ADCYAP1 (230237_at) | Direction AHI1 (220841_s_at) | Direction AHI1 (221569_at) | Direction AKR1C1 (1562102_at) | Direction AKT3 (212607_at) | Direction AKT3 (212609_s_at) | Direction AKT3 (222880_at) | Direction AKT3 (224229_s_at) | Direction ALG9 (228817_at) | Direction ANKRD28 (213035_at) | Direction ANKRD28 (229307_at) | Direction ARMC8 (1555281_x_at) | Direction ARNT2 (202986_at) | Direction ATF3 (1554980_a_at) | Direction ATP2A3 (207522_s_at) | Direction BAG2 (209406_at) | Direction BCL2L11 (1558143_a_at) | Direction BNC2 (220272_at) | Direction BNC2 (235723_at) | Direction C1GALT1C1 (238989_at) | Direction C1orf67 /// DNAH14 (242283_at) | Direction C13orf33 (227058_at) | Direction CABLES1 (225532_at) | Direction CARD16 (1552701_a_at) | Direction CCR1 (205098_at) | Direction CDCP1 (1554110_at) | Direction CDR2 (209501_at) | Direction CHST2 (203921_at) | Direction CLGN (205830_at) | Direction CNOT3 (203239_s_at) | Direction CPM (241765_at) | Direction CPM (243403_x_at) | Direction CREM (207630_s_at) | Direction CUL4B (202213_s_at) | Direction CXCL1 (204470_at) | Direction CYP7B1 (207386_at) | Direction CYR61 (210764_s_at) | Direction DENND3 (212975_at) | Direction DENND5B (228551_at) | Direction DGKI (206806_at) | Direction DNAJB9 (202842_s_at) | Direction DNAJB9 (1554462_a_at) | Direction DNAJC10 (221781_s_at) | Direction DNAJC10 (221782_at) | Direction DOCK4 (205003_at) | Direction DOCK5 (230206_at) | Direction DOCK5 (230263_s_at) | Direction DOK6 (236290_at) | Direction DSEL (232825_s_at) | Direction DUSP4 (204015_s_at) | Direction DZIP1 (204557_s_at) | Direction EIF2AK3 (218696_at) | Direction ELL2 (214446_at) | Direction ELTD1 (219134_at) | Direction ENPP1 (205066_s_at) | Direction ENTPD7 (220153_at) | Direction EPS8 (202609_at) | Direction EREG (205767_at) | Direction ERO1LB (220012_at) | Direction FADS1 (208963_x_at) | Direction FADS1 (208964_s_at) | Direction FAM20A (226804_at) | Direction FAM107B (223058_at) | Direction FAM107B (223059_s_at) | Direction FAR2 (220615_s_at) | Direction FAT4 (219427_at) | Direction FEM1B (212374_at) | Direction FGF7 (1555103_s_at) | Direction FGF7 /// KGFLP1 /// KGFLP2 (1554741_s_at) | Direction FHOD3 (218980_at) | Direction FKBP11 (219117_s_at) | Direction FKBP11 (219118_at) | Direction FMN2 (1555471_a_at) | Direction FN1 (214701_s_at) | Direction FN1 (214702_at) | Direction FOXJ3 (217310_s_at) | Direction FPR1 (205119_s_at) | Direction GAS1 (204457_s_at) | Direction GCLM (203925_at) | Direction GCLM (236140_at) | Direction GEM (204472_at) | Direction GFPT1 (226886_at) | Direction GFPT2 (205100_at) | Direction GLIPR1 (204222_s_at) | Direction GRAMD1A (224807_at) | Direction GRAMD1B (212906_at) | Direction GUCY1A3 (221942_s_at) | Direction GUCY1A3 (229530_at) | Direction HERC3 (1554290_at) | Direction HEY1 (44783_s_at) | Direction HIST1H2AB /// HIST1H2AE (214469_at) | Direction HIST1H2AD /// HIST1H3A /// HIST1H3B /// HIST1H3C /// HIST1H3D /// HIST1H3E /// HIST1H3F /// HIST1H3G /// HIST1H3H /// HIST1H3I /// HIST1H3J (214472_at) | Direction HIST2H2AA3 /// HIST2H2AA4 (214290_s_at) | Direction HK2 (222305_at) | Direction HOXB2 (205453_at) | Direction HSD17B2 (204818_at) | Direction HSPA13 (202557_at) | Direction ID2 /// ID2B (213931_at) | Direction IGFBP5 (211958_at) | Direction ING1 (209808_x_at) | Direction IRAK2 (231779_at) | Direction IRAK3 (220034_at) | Direction ITPRIP (225582_at) | Direction JHDM1D (225142_at) | Direction KCNA3 (207237_at) | Direction KCNE4 (222379_at) | Direction KCNE4 (1552508_at) | Direction KCNJ8 (205303_at) | Direction KCNJ8 (205304_s_at) | Direction KLF15 (231015_at) | Direction KLHL29 (229310_at) | Direction LCP1 (208885_at) | Direction LOC285628 (232504_at) | Direction LOC440028 (1562606_a_at) | Direction LOC729222 /// PPFIBP1 (214375_at) | Direction LOC100128821 /// ZEB2 (235593_at) | Direction LOC100132244 (229438_at) | Direction LPAR1 (204036_at) | Direction LPAR1 (204037_at) | Direction LPAR1 (204038_s_at) | Direction LPPR4 (213496_at) | Direction LRCH2 (227688_at) | Direction LRRK2 (229584_at) | Direction MAGEA4 (214254_at) | Direction MAP3K4 (216199_s_at) | Direction MAP3K5 (203836_s_at) | Direction MAP9 (220145_at) | Direction MASP1 (232224_at) | Direction MASP1 (235770_at) | Direction MESDC1 (223264_at) | Direction MGST1 (239001_at) | Direction MMD (203414_at) | Direction MTHFD2L (220346_at) | Direction MYO3B (1552578_a_at) | Direction NAMPT (217738_at) | Direction NEGR1 (1553194_at) | Direction NEXN (226103_at) | Direction NFKB2 (207535_s_at) | Direction NFKBIZ (223217_s_at) | Direction NOVA1 (205794_s_at) | Direction NR4A1 (202340_x_at) | Direction NRP2 (228699_at) | Direction OLAH (222945_x_at) | Direction PAPPA (201981_at) | Direction PAPPA (224940_s_at) | Direction PAPPA (224941_at) | Direction PAPPA (228128_x_at) | Direction PAPPA (1559400_s_at) | Direction PCDH7 (210941_at) | Direction PCSK1 (205825_at) | Direction PDE4D (211840_s_at) | Direction PEG10 (212092_at) | Direction PF4 (206390_x_at) | Direction PGM2L1 (229256_at) | Direction PHLDA1 (217996_at) | Direction PHTF1 (215285_s_at) | Direction PI15 (229947_at) | Direction PID1 (219093_at) | Direction PID1 (237867_s_at) | Direction PISD (202392_s_at) | Direction PITPNC1 (238649_at) | Direction PLAUR (211924_s_at) | Direction PLEKHA3 (223370_at) | Direction PTGER4 (204897_at) | Direction PTGES (207388_s_at) | Direction PTGES (210367_s_at) | Direction PTGS1 (205128_x_at) | Direction PTGS1 (215813_s_at) | Direction PTHLH (206300_s_at) | Direction PTHLH (211756_at) | Direction PTPRG (204944_at) | Direction QKI (228540_at) | Direction RAB3B (205924_at) | Direction RAB3B (227123_at) | Direction RAB23 (220955_x_at) | Direction RABGGTB (209180_at) | Direction RABGGTB (213704_at) | Direction RAI14 (202052_s_at) | Direction RASSF8 (235996_at) | Direction RGS3 (203823_at) | Direction RGS5 (209070_s_at) | Direction RGS12 (242079_at) | Direction RHOQ (212122_at) | Direction SEC24A (212902_at) | Direction SEMA3A (206805_at) | Direction SETDB2 (235339_at) | Direction SGK1 (201739_at) | Direction SH3RF3 (228461_at) | Direction SHOX (207570_at) | Direction SLC6A15 (232263_at) | Direction SLC11A2 (237106_at) | Direction SLC20A1 (230494_at) | Direction SLC43A3 (210692_s_at) | Direction SLFN11 (226743_at) | Direction SLIT2 (209897_s_at) | Direction SNHG12 (223774_at) | Direction SOCS2 (203373_at) | Direction SPON1 (209437_s_at) | Direction SPON1 (213993_at) | Direction SQSTM1 (213112_s_at) | Direction ST3GAL1 (208322_s_at) | Direction ST3GAL1 (225033_at) | Direction STK17B (205214_at) | Direction SULF1 (212344_at) | Direction TAF1A (206613_s_at) | Direction TAGLN (205547_s_at) | Direction TBC1D1 (212350_at) | Direction TBC1D1 (227945_at) | Direction TGM2 (201042_at) | Direction THBS1 (201108_s_at) | Direction THBS1 (239336_at) | Direction THRAP3 (242163_at) | Direction TMEM38B (222735_at) | Direction TMEM38B (222736_s_at) | Direction TMEM39A (218615_s_at) | Direction TMEM39A (222690_s_at) | Direction TMTC1 (226322_at) | Direction TMTC1 (226931_at) | Direction TNC (216005_at) | Direction TNFAIP6 (206026_s_at) | Direction TNIP3 (220655_at) | Direction TRPA1 (217590_s_at) | Direction TRPC4 (224220_x_at) | Direction UBE2B (239163_at)
